Data taken from PubChem BioAssay (NCI).
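Method: 48-hour compound exposure of cells in 96-well plates, five concentrations, linear interpolation of endpoints. The concentration for 50% growth inhibition is given as GI50. TGI is the concentration that stops growth completely.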

Columns and labels:
Assay in all cases: inhibition of tumour cell growth, NCI panel, 48 h
[1] = test system: SK-MEL-2 melanoma
[2] = test system: HT29 colon
[3] = test system: IGROV1 ovarian
[4] = test system: SNB-19 CNS
[5] = test system: SF-295 CNS
[6] = test system: OVCAR-4 ovarian
[7] = test system: OVCAR-5 ovarian
[8] = test system: NCI-H460 lung
[9] = test system: NCI-H23 lung
[10] = test system: OVCAR-8 ovarian

SMILES | TGI [1] [µM] | TGI [2] [µM] | TGI [3] [µM] | TGI [4] [µM] | TGI [5] [µM] | TGI [6] [µM] | TGI [7] [µM] | TGI [8] [µM] | TGI [9] [µM] | TGI [10] [µM] | GI50 [1] [µM] | GI50 [2] [µM] | GI50 [3] [nM] | GI50 [4] [µM] | GI50 [5] [nM] | GI50 [6] [nM] | GI50 [7] [nM] | GI50 [8] [nM] | GI50 [9] [µM] | GI50 [10] [µM]
COC(=O)C1Cc2c(n(C)c3ccccc23)C(c2ccccc2)N1 (stereo not given) | > 100 | > 100 | > 100 | > 100 | > 100 | > 100 | > 100 | > 100 | > 100 | > 100 | – | – | – | – | – | – | – | – | – | –
NC(=O)c1csc(C2O[C@@H](COP(=O)(O)OP(=O)(O)OC[C@H]3OC(n4cnc5c(N)ncnc54)[C@H](O)[C@@H]3O)[C@H](O)[C@@H]2O)n1 (stereo not given in full) | > 100 | > 100 | > 100 | > 100 | > 100 | > 100 | > 100 | > 100 | > 100 | > 100 | – | – | – | – | – | – | – | – | – | –
COc1ccc(-c2nc3sccn3c2/C=C/C(=O)c2cc(OC)c(OC)c(OC)c2)cc1OC | 4.65 | 9.88 | 3.31 | 6.3 | 24 | 77.2 | 7.02 | 3.76 | 5.89 | 7.15 | 1.87 | 3.48 | 1200 | 2.45 | 3080 | 2850 | 2450 | 1990 | 2.16 | 2.47
C=C1C(=O)O[C@H]2[C@H]1CC/C(COC(=O)/C=C/c1cccnc1)=C\CC[C@@]1(C)O[C@@H]21 | 12.7 | 6.03 | 7.86 | 28.4 | 23.1 | 16.9 | 5.94 | 20 | 15.4 | 13.9 | 3.88 | 2.23 | 2070 | 9.05 | 10600 | 3960 | 2110 | 5120 | 3.42 | 3.85
O=C(O)CSCC(=O)c1ccccc1 | > 100 | > 100 | > 100 | > 100 | > 100 | > 100 | > 100 | > 100 | > 100 | > 100 | – | – | – | – | – | – | – | – | – | –
O=[N+]([O-])c1ccc2c(c1)OCCOCCOc1ccc([N+](=O)[O-])cc1OCCOCCO2 | > 100 | > 100 | > 100 | > 100 | > 100 | > 100 | > 100 | > 100 | > 100 | > 100 | – | – | – | – | – | – | – | – | – | –
C=C1C(=O)OC2C1C(OC(=O)/C(C)=C/C)CC(O)(CCl)C1C(OC(C)=O)C=C(C)C21O (stereo not given) | 32.5 | 31.9 | 30 | > 58.9 | > 100 | 33.5 | 31.9 | 46.1 | 34.1 | 26.5 | – | – | – | – | – | – | – | – | – | –
N#CC12CCC(O)C(CC1)C2=O (stereo not given) | > 100 | > 100 | > 100 | > 100 | > 100 | > 100 | > 100 | > 100 | > 100 | > 100 | – | – | – | – | – | – | – | – | – | –
O=c1oc2ccccc2cc1-c1ccc([N+](=O)[O-])cc1 | > 100 | > 100 | > 100 | > 75.6 | > 100 | > 100 | > 100 | > 100 | > 100 | > 100 | – | – | – | – | – | – | – | – | – | –
CC(C)(C)[Si](C)(C)OC1[C@@H](O[Si](C)(C)C(C)(C)C)[C@@H](CNC(=O)NC(=O)NC(=O)CI)O[C@H]1n1cnc2c(NC(=O)Nc3ccccc3)ncnc21 (stereo not given in full) | 17.7 | 0.771 | 0.246 | 38.2 | 2.36 | 2.36 | 12.2 | 21.7 | 1.09 | 0.925 | 8.07 | 0.225 | 113 | 12.5 | 849 | 665 | 2710 | 4790 | 0.187 | 0.275
CC(C)(C)c1ccc(Oc2ccc(C#N)c(C#N)c2)c(C(C)(C)C)c1 | 97.8 | > 100 | > 100 | > 100 | > 100 | > 100 | > 100 | > 71.1 | > 100 | > 100 | – | – | – | – | – | – | – | – | – | –
Cc1cc(Cl)ccc1NC(=O)/C(Cc1nc2ccc(C(=O)c3ccccc3)cc2[nH]c1=O)=N/NC(=O)c1ccncc1 | > 100 | > 100 | > 100 | > 100 | > 100 | > 100 | > 100 | > 100 | > 100 | > 100 | – | – | – | – | – | – | – | – | – | –
O=C(O)C(Cc1ccccc1-c1ccccc1)C(=O)O | > 100 | > 100 | > 100 | > 100 | > 100 | > 100 | > 100 | > 100 | > 100 | > 100 | – | – | – | – | – | – | – | – | – | –
COc1cccc(-c2nc(-c3ccc(NS(=O)(=O)c4ccccc4)cc3)[nH]c2-c2ccnc(Br)c2)c1 | 6.62 | > 100 | > 100 | > 100 | 4.35 | > 100 | > 100 | 8.71 | 17.2 | > 100 | 2.5 | 3.02 | 3840 | 4.03 | 1850 | 3840 | 4170 | 2850 | 3.06 | 3.33
O=C1C2c3[nH]c4ccccc4c3C3CCSCC3C2C(=O)N1c1ccccc1 (stereo not given) | > 100 | > 100 | > 100 | > 100 | > 100 | > 100 | > 100 | > 100 | > 100 | > 100 | – | – | – | – | – | – | – | – | – | –
COc1ccc2c(CN3CCC(CO)CC3)cc3cc4c(cc3c2c1)OCO4 | 0.636 | 2.6 | 11.6 | 12.1 | 3.29 | 11.4 | 10.6 | 3.21 | 1.5 | 2.19 | 0.193 | 0.134 | 305 | 0.392 | 241 | 438 | 344 | 143 | 0.298 | 0.0844

SMILES | TGI [1] [µM] | TGI [2] [µM] | TGI [3] [µM] | TGI [4] [µM] | TGI [5] [µM] | TGI [6] [µM] | TGI [7] [µM] | TGI [8] [µM] | TGI [9] [µM] | TGI [10] [µM] | GI50 [1] [µM] | GI50 [2] [µM] | GI50 [3] [nM] | GI50 [4] [µM] | GI50 [5] [nM] | GI50 [6] [nM] | GI50 [7] [nM] | GI50 [8] [nM] | GI50 [9] [µM] | GI50 [10] [µM]
N.N.NCCCCN.O=C([O-])CC(=O)[O-].O=C([O-])CC(=O)[O-].[Pt+4].[Pt+4] | > 100 | > 100 | > 100 | > 100 | > 100 | > 100 | > 100 | > 100 | > 100 | > 100 | > 100 | > 100 | > 100000 | > 100 | > 100000 | > 100000 | > 100000 | 9620 | 89.1 | > 100
OCc1ccc(N(Cc2ccc(F)cc2)C2CCC2)cc1Cl | 20.1 | 15.3 | 0.339 | 27.5 | 12.9 | 2.69 | 0.495 | 10.2 | 25.4 | 29.1 | 4.89 | 3.89 | 69.8 | 13.8 | 437 | 207 | 106 | 275 | 9.41 | 13.4
COc1cc2c3c(n(CCCO)c(=O)c2cc1OC)-c1cc2c(cc1C3=O)OCO2 | > 100 | > 100 | > 100 | > 100 | > 48.3 | > 100 | > 100 | > 100 | 28.3 | > 100 | 31.9 | > 46.5 | 17400 | 14.5 | 1170 | > 87300 | > 79200 | 845 | 6.75 | 13.7
CCN(CC)c1ccc2[nH]c3c(C(N)=O)cc(=O)c(=O)c=3oc2c1 | 6.1 | 12.9 | 1.24 | 24.5 | 6.35 | 11.5 | 33.4 | 12.6 | 5.17 | > 100 | 1.65 | 2.97 | 310 | 2.68 | 1570 | 2030 | 3660 | 1340 | 1.4 | 2.05
Cc1ccc(C)c(NC(=O)CC2C(=O)Nc3ccccc3S2(=O)=O)c1 (stereo not given) | > 100 | > 100 | > 100 | > 100 | > 100 | 38.7 | > 100 | > 100 | > 100 | > 100 | – | – | – | – | – | – | – | – | – | –
O=P(Oc1ccccc1)(Oc1ccccc1)C(O)c1ccccc1 (stereo not given) | > 100 | > 100 | > 100 | > 100 | > 100 | > 100 | > 100 | > 100 | > 100 | > 100 | 81.4 | 78.1 | 37200 | > 100 | 29300 | 58200 | > 100000 | > 100000 | > 100 | > 100
COc1ccc(C(=O)c2cc(OC)c(OC)c(OC)c2)cc1/C=C/C(=O)c1ccc(O)cc1 | 26.5 | > 100 | 34.8 | 19.7 | 20.1 | 58.4 | 25.1 | 7.23 | 10.2 | > 100 | 5.01 | 5.35 | 9940 | 4.42 | 6500 | 2730 | 11200 | 2560 | 2.93 | 4.48
O=C(O)C1CCCN1Cc1c[nH]c2ccccc12 (stereo not given) | > 100 | > 100 | > 100 | > 100 | > 100 | > 100 | > 100 | > 100 | > 100 | > 100 | – | – | – | – | – | – | – | – | – | –
COC(=O)/C=C1\SC(=Nc2ccc(C(F)(F)F)cc2)N(CCc2c[nH]c3ccccc23)C1=O | 3.43 | 4.56 | 3.59 | 3.45 | 2.95 | 3.05 | 3.38 | 4.28 | 3.64 | 4.6 | 1.65 | 1.86 | 1820 | 1.78 | 1570 | 1610 | 1790 | 2040 | 1.76 | 1.74
COC1CCC2C(=O)CCCC2O1 (stereo not given) | > 100 | > 100 | > 100 | > 100 | > 100 | > 100 | > 100 | > 100 | > 100 | > 100 | – | – | – | – | – | – | – | – | – | –
COCC1N=C(c2ccc(OC)c(OCc3ccccc3)c2OC)O[C@H]1c1ccccc1 (stereo not given in full) | 53.3 | 59.7 | > 100 | > 100 | 93.8 | > 100 | 71.2 | 35 | > 100 | > 100 | – | – | – | – | – | – | – | – | – | –
COc1c(O)cc2oc3cc(O)c(CC=C(C)C)c(O)c3c(=O)c2c1C/C=C(\C)CCC=C(C)C | 12.1 | 12.4 | 10.4 | 12 | 9.6 | 9.84 | 10.6 | 10.2 | 14.8 | 10.6 | 6.46 | 6.34 | 5390 | 6.51 | 4880 | 5410 | 5190 | 5660 | 6.6 | 5.45
O=C(CSc1nc2ccc([N+](=O)[O-])cc2[nH]1)Nc1cccc(C(F)(F)F)c1 | 5.99 | 11.3 | 14.7 | 12.7 | 5.65 | 14.5 | 11.1 | 11.3 | 8.81 | 15.8 | 1.96 | 2.78 | 2870 | 2.71 | 1730 | 1610 | 2620 | 2880 | 1.98 | 2.93
O=C1C(Cl)=C(Oc2ccccc2)C(=O)c2ccccc21 | 19.4 | 12.3 | 9.63 | 17.4 | 11.3 | 7.22 | 31.7 | 23.1 | 24.5 | 36.8 | 6.56 | 3.09 | 2960 | 4.11 | 3030 | 2580 | 16700 | 5570 | 9.49 | 14.3
Brc1nc2c3ccccc3ncn2c1Br | 82.6 | > 100 | > 100 | > 100 | > 100 | 42.7 | > 100 | > 100 | 56.1 | > 100 | – | – | – | – | – | – | – | – | – | –
